Source: PubChem BioAssay AID2060493 (Molecular Pharmacology Branch, DTP, NCI, 2025)

System: 616215-338-R-J1-PDC tumor spheroids, viability
Test: Anticancer human tumor 616215-338-R-J1-PDC patient-derived colon adenocarcinoma cell line growth inhibition [GQUAD]
Details: spheroids with HUVEC and MSC; for IC50: curve of first compound; for viability, T/C: stronger effect = lower value
In short: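 Viability of tumor cells grown as complex spheroids with endothelial and stromal cells, exposed to drug combinations. Top concentration at or near clinical Cmax (else 10 microM), diluted in half-log increments.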

[1] = second compound 0.0316 µM, first compound 0.0316 µM
[2] = second compound 0.0316 µM, first compound 0.1 µM
[3] = second compound 0.0316 µM, first compound 0.316 µM
[4] = second compound 0.0316 µM, first compound 1 µM
[5] = second compound 0.0316 µM, first compound 3.16 µM
[6] = second compound 0.0316 µM, first compound 10 µM
[7] = second compound 0.1 µM, first compound 0.0316 µM
[8] = second compound 0.1 µM, first compound 0.1 µM
[9] = second compound 0.1 µM, first compound 0.316 µM
[10] = second compound 0.1 µM, first compound 1 µM
[11] = second compound 0.1 µM, first compound 3.16 µM
[12] = second compound 0.1 µM, first compound 10 µM
[13] = second compound 0.316 µM, first compound 0.0316 µM
[14] = second compound 0.316 µM, first compound 0.1 µM
[15] = second compound 0.316 µM, first compound 0.316 µM
[16] = second compound 0.316 µM, first compound 1 µM
[17] = second compound 0.316 µM, first compound 3.16 µM
[18] = second compound 0.316 µM, first compound 10 µM
[19] = second compound 1 µM, first compound 0.0316 µM
[20] = second compound 1 µM, first compound 0.1 µM
[21] = second compound 1 µM, first compound 0.316 µM
[22] = second compound 1 µM, first compound 1 µM
[23] = second compound 1 µM, first compound 3.16 µM
[24] = second compound 1 µM, first compound 10 µM
[25] = second compound 3.16 µM, first compound 0.0316 µM
[26] = second compound 3.16 µM, first compound 0.1 µM
[27] = second compound 3.16 µM, first compound 0.316 µM
[28] = second compound 3.16 µM, first compound 1 µM
[29] = second compound 3.16 µM, first compound 3.16 µM
[30] = second compound 3.16 µM, first compound 10 µM
[31] = second compound 10 µM, first compound 0.0316 µM
[32] = second compound 10 µM, first compound 0.1 µM
[33] = second compound 10 µM, first compound 0.316 µM
[34] = second compound 10 µM, first compound 1 µM
[35] = second compound 10 µM, first compound 3.16 µM
[36] = second compound 10 µM, first compound 10 µM
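Also: spheroids exposed to agents for 7 days before readout.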
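For viability, T/C in this document: percent viability relative to DMSO vehicle control wells taken as 100%.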

Question: Which results are given for `CC1COCCN1c1cc(C2(S(C)(=N)=O)CC2)nc(-c2ccnc3[nH]ccc23)n1` (stereo unspecified) + CN(C)c1ccc(Nc2c3ccc(NC(=O)CCN4CCCC4)cc3nc3cc(NC(=O)CCN4CCCC4)ccc23)cc1?
Answer: IC50 (second compound 0.0316 µM): 2800 nM; IC50 (second compound 0.1 µM): 4910 nM; IC50 (second compound 0.316 µM): 5620 nM; IC50 (second compound 1 µM): 5200 nM; IC50 (second compound 3.16 µM): 5180 nM; IC50 (second compound 10 µM): 3470 nM; viability, T/C [1]: 116%; viability, T/C [2]: 102%; viability, T/C [3]: 103%; viability, T/C [4]: 97.6%; viability, T/C [5]: 44.4%; viability, T/C [6]: 31.5%; viability, T/C [7]: 105%; viability, T/C [8]: 97%; viability, T/C [9]: 104%; viability, T/C [10]: 98%; viability, T/C [11]: 63.5%; viability, T/C [12]: 28.2%; viability, T/C [13]: 98.1%; viability, T/C [14]: 106%; viability, T/C [15]: 102%; viability, T/C [16]: 96.6%; viability, T/C [17]: 69.9%; viability, T/C [18]: 30.1%; viability, T/C [19]: 93.2%; viability, T/C [20]: 97.3%; viability, T/C [21]: 99.3%; viability, T/C [22]: 95.9%; viability, T/C [23]: 69.2%; viability, T/C [24]: 24.8%; viability, T/C [25]: 99%; viability, T/C [26]: 102%; viability, T/C [27]: 94.3%; viability, T/C [28]: 97.7%; viability, T/C [29]: 68.1%; viability, T/C [30]: 25.9%; viability, T/C [31]: 94%; viability, T/C [32]: 94%; viability, T/C [33]: 89.2%; viability, T/C [34]: 86.1%; viability, T/C [35]: 51.7%; viability, T/C [36]: 29.6%

Question: What does the source list for `CC[C@@]1(O)C(=O)OCc2c1cc1n(c2=O)Cc2cc3c(CN(C)C)c(O)ccc3nc2-1` + Cc1[nH]c2ccc(F)cc2c1-c1nc2c3cccnc3c3ncccc3c2[nH]1?
Answer: IC50 (second compound 0.0316 µM): 302 nM; IC50 (second compound 0.1 µM): > 316 nM; IC50 (second compound 0.316 µM): 232 nM; IC50 (second compound 1 µM): > 316 nM; IC50 (second compound 3.16 µM): 262 nM; IC50 (second compound 10 µM): 186 nM; viability, T/C (second compound 0.0316 µM, first compound 0.000999 µM): 102%; viability, T/C (second compound 0.0316 µM, first compound 0.00316 µM): 99.7%; viability, T/C (second compound 0.0316 µM, first compound 0.00999 µM): 103%; viability, T/C [1]: 99.4%; viability, T/C (second compound 0.0316 µM, first compound 0.0999 µM): 90.5%; viability, T/C [3]: 48.2%; viability, T/C (second compound 0.1 µM, first compound 0.000999 µM): 105%; viability, T/C (second compound 0.1 µM, first compound 0.00316 µM): 111%; viability, T/C (second compound 0.1 µM, first compound 0.00999 µM): 97%; viability, T/C [7]: 101%; viability, T/C (second compound 0.1 µM, first compound 0.0999 µM): 89.5%; viability, T/C [9]: 55.2%; viability, T/C (second compound 0.316 µM, first compound 0.000999 µM): 88.9%; viability, T/C (second compound 0.316 µM, first compound 0.00316 µM): 109%; viability, T/C (second compound 0.316 µM, first compound 0.00999 µM): 100%; viability, T/C [13]: 101%; viability, T/C (second compound 0.316 µM, first compound 0.0999 µM): 79.8%; viability, T/C [15]: 38.9%; viability, T/C (second compound 1 µM, first compound 0.000999 µM): 93%; viability, T/C (second compound 1 µM, first compound 0.00316 µM): 108%; viability, T/C (second compound 1 µM, first compound 0.00999 µM): 95.3%; viability, T/C [19]: 97.7%; viability, T/C (second compound 1 µM, first compound 0.0999 µM): 90.9%; viability, T/C [21]: 51.1%; viability, T/C (second compound 3.16 µM, first compound 0.000999 µM): 88.8%; viability, T/C (second compound 3.16 µM, first compound 0.00316 µM): 89.9%; viability, T/C (second compound 3.16 µM, first compound 0.00999 µM): 92%; viability, T/C [25]: 95.5%; viability, T/C (second compound 3.16 µM, first compound 0.0999 µM): 87%; viability, T/C [27]: 42.6%; viability, T/C (second compound 10 µM, first compound 0.000999 µM): 98.2%; viability, T/C (second compound 10 µM, first compound 0.00316 µM): 110%; viability, T/C (second compound 10 µM, first compound 0.00999 µM): 87.8%; viability, T/C [31]: 94.5%; viability, T/C (second compound 10 µM, first compound 0.0999 µM): 71.4%; viability, T/C [33]: 31.4%

Question: With `O=c1[nH]cc(F)c(=O)[nH]1` + Cc1[nH]c2ccc(F)cc2c1-c1nc2c3cccnc3c3ncccc3c2[nH]1 as the molecule, how does the IC50 (second compound 0.0316 µM) read?
Answer: 685 nM

Question: And the IC50 (second compound 0.1 µM)?
Answer: 380 nM

Question: And the IC50 (second compound 0.316 µM)?
Answer: 592 nM

Question: And the IC50 (second compound 1 µM)?
Answer: 729 nM

Question: And the IC50 (second compound 3.16 µM)?
Answer: 342 nM

Question: What about the IC50 (second compound 10 µM) of the same molecule?
Answer: 289 nM

Question: What about the viability, T/C [1] of the same molecule?
Answer: 97.7%

Question: What about the viability, T/C [2] of the same molecule?
Answer: 96.9%

Question: What about the viability, T/C [3] of the same molecule?
Answer: 64.3%

Question: What about the viability, T/C [4] of the same molecule?
Answer: 43%

Question: What about the viability, T/C [5] of the same molecule?
Answer: 48.1%

Question: And the viability, T/C [6]?
Answer: 37%

Question: And the viability, T/C [7]?
Answer: 102%

Question: And the viability, T/C [8]?
Answer: 94.4%

Question: And the viability, T/C [9]?
Answer: 51.8%

Question: What about the viability, T/C [10] of the same molecule?
Answer: 41.3%

Question: And the viability, T/C [11]?
Answer: 36.3%

Question: What about the viability, T/C [12] of the same molecule?
Answer: 35.1%

Question: And the viability, T/C [13]?
Answer: 99.6%

Question: And the viability, T/C [14]?
Answer: 92.6%

Question: What about the viability, T/C [15] of the same molecule?
Answer: 57.1%

Question: What about the viability, T/C [16] of the same molecule?
Answer: 47%

Question: What about the viability, T/C [17] of the same molecule?
Answer: 37%

Question: What about the viability, T/C [18] of the same molecule?
Answer: 34.2%

Question: And the viability, T/C [19]?
Answer: 96%

Question: What about the viability, T/C [20] of the same molecule?
Answer: 94.8%

Question: And the viability, T/C [21]?
Answer: 65.1%

Question: And the viability, T/C [22]?
Answer: 46.1%

Question: What about the viability, T/C [23] of the same molecule?
Answer: 39.2%

Question: What about the viability, T/C [24] of the same molecule?
Answer: 43.6%

Question: What about the viability, T/C [25] of the same molecule?
Answer: 98.3%

Question: And the viability, T/C [26]?
Answer: 82.9%

Question: What about the viability, T/C [27] of the same molecule?
Answer: 51.5%

Question: And the viability, T/C [28]?
Answer: 37.6%

Question: And the viability, T/C [29]?
Answer: 38.8%

Question: And the viability, T/C [30]?
Answer: 42.7%

Question: And the viability, T/C [31]?
Answer: 102%

Question: What about the viability, T/C [32] of the same molecule?
Answer: 83.8%

Question: What about the viability, T/C [33] of the same molecule?
Answer: 46.7%

Question: What about the viability, T/C [34] of the same molecule?
Answer: 38.9%

Question: And the viability, T/C [35]?
Answer: 34.3%

Question: What about the viability, T/C [36] of the same molecule?
Answer: 36.2%
